The values that follow are results of earlier work, collected in US8486463B1, “Cosmetic composition comprising aloe vera and caprylyl salicylic acid and method of making” (L'Oreal, priority 2012, dated 2013).

For the data set the following is noted: based on temperature and purity level.

For `O` [water], the pH was 7 and the surface tension is 55.73 dyne/cm.
